# Biological target: T1, human MRGPRX2 (Homo sapiens, UniProt Q96LB1)
# T1 sequence (Q96LB1 1-330): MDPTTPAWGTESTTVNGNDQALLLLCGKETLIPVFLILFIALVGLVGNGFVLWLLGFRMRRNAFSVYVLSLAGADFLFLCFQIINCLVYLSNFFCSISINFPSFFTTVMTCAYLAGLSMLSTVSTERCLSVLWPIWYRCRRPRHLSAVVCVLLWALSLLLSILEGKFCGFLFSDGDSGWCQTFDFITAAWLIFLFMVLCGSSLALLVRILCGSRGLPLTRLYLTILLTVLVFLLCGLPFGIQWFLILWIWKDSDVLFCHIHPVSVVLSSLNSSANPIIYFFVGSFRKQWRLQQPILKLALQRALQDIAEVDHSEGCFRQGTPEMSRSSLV
# Assay: Ca2+ mobilization assay (FLIPR TETRA): inhibition of Cortistatin-14 mediated MRGPRX2 activation
row,SMILES,IC50
1,"C[C@@H](C(=O)Nc1ccc(F)cn1)N1CCC(F)(F)C(c2c[nH]c(=O)c(C(N)C(F)(F)F)c2)C1 (stereo partly drawn) [Example 232, (2S)-2-(3-(5-(1-amino-2,2,2-trifluoroethyl)-6-oxo-1,6-dihydropyridin-3-yl)-4,4-difluoropiperidin-1-yl)-N-(5-fluoropyridin-2-yl)propanamide]",100 to 3160 nM
2,"CC(C(=O)Nc1ccc(Oc2ccccc2C#N)nn1)N1CCC(F)(F)[C@@H](c2ccc(=O)[nH]c2)C1 (stereo partly drawn) [Example 62, N-(6-(2-cyanophenoxy)pyridazin-3-yl)-2-((S)-4,4-difluoro-3-(6-oxo-1,6-dihydropyridin-3-yl)piperidin-1-yl)propanamide]",3160 to 31600 nM
3,"CC(C)Oc1ccc(NC(=O)C(C)N2CCC(F)(F)[C@@H](c3ccc(=O)[nH]c3)C2)nc1 (stereo partly drawn) [Example 26, 2-((S)-4,4-difluoro-3-(6-oxo-1,6-dihydropyridin-3-yl)piperidin-1-yl)-N-(5-isopropoxy-pyridin-2-yl)propanamide]",100 to 3160 nM
4,"C[C@@H](C(=O)Nc1ccc(Oc2ccc(F)cn2)cn1)N1CCC(F)(F)[C@@H](c2c[nH]c(=O)c(CN)c2)C1 [Example 208, (S)-2-((S)-3-(5-(aminomethyl)-6-oxo-1,6-dihydropyridin-3-yl)-4,4-difluoropiperidin-1-yl)-N-(5-((5-fluoropyridin-2-yl)oxy)pyridin-2-yl)propanamide]",≤ 10 nM
5,"C[C@@H](C(=O)Nc1ccc(Cl)cn1)N1CCC(F)(F)[C@@H](c2c[nH]c(=O)c(N)n2)C1 [Example 107, (S)-2-((R)-3-(6-amino-5-oxo-4,5-dihydropyrazin-2-y1)-4,4-difluoropiperidin-l-y1)-N-(5-chloropyridin-2-yl)propanamide]",100 to 3160 nM
6,"CC(C(=O)Nc1ccc(F)cn1)N1CCC(F)(F)C(c2ccc(=O)n(Cc3ccncc3)c2)C1 (stereo not shown) [Example 197, 2-(4,4-difluoro-3-(6-oxo-1-(pyridin-4-ylmethyl)-1,6-dihydropyridin-3-yl)piperidin-1-yl)-N-(5-fluoropyridin-2-yl)propanamide]",10 to 100 nM
7,"C[C@@H](C(=O)Nc1ccc(F)cn1)N1CCC(F)(F)C(c2cc(N)c(=O)n(CC(F)(F)F)c2)C1 (stereo partly drawn) [Example 187, (2S)-2-(3-(5-amino-6-oxo-1-(2,2,2-trifluoroethyl)-1,6-dihydropyridin-3-yl)-4,4-difluoropiperidin-1-yl)-N-(5-fluoropyridin-2-yl)propanamide]",3160 to 31600 nM
8,"C[C@@H](C(=O)Nc1ccc(Oc2ccc(F)cc2F)cn1)N1CCC(F)(F)[C@@H](c2cc[n+]([O-])cc2)C1 [Example 117, 4-((S)-1-((S)-1-((5-(2,4-difluorophenoxy)pyridin-2-yl)amino)-1-oxopropan-2-yl)-4,4-difluoropiperidin-3-yl)pyridine 1-oxide]",≤ 10 nM
9,"C[C@@H](C(=O)Nc1ccc(Cl)cn1)N1CCC[C@@H](c2ccc(=O)n(Cc3ccccc3)c2)C1 (single isomer, unassigned) [Example 168]",100 to 3160 nM
10,"C[C@@H](C(=O)Nc1ccc(F)cn1)N1CCC(F)(F)[C@@H](c2c[nH]c(=O)c(CN)c2)C1 (single isomer, unassigned) [Example 201]",100 to 3160 nM
11,"C[C@@H](C(=O)Nc1ccc(F)cn1)N1CCC(F)(F)[C@@H](c2c[nH]c(=O)cn2)C1 [Example 135, (S)-2-((R)-4,4-difluoro-3-(5-oxo-4,5-dihydropyrazin-2-yl)piperidin-1-yl)-N-(5-fluoropyridin-2-yl)propanamide]",10 to 100 nM
12,"C[C@@H](C(=O)Nc1cnc(Oc2ccc(F)cc2F)cn1)[C@H]1CCC(F)(F)[C@@H](c2cc[n+]([O-])cc2)C1 [Example 295, 4-((1R,5S)-5-((R)-1-((5-(2,4-difluorophenoxy)pyrazin-2-yl)amino)-1-oxopropan-2-yl)-2,2-difluorocyclohexyl)pyridine 1-oxide]",≤ 10 nM
13,"C[C@@H](C(=O)Nc1ccc(Oc2ccccn2)cn1)N1CCC(F)(F)[C@@H](c2cc[n+]([O-])cc2)C1 [Example 126, 4-((S)-4,4-difluoro-1-((S)-1-oxo-1-((5-(pyridin-2-yloxy)pyridin-2-yl)amino)propan-2-yl)piperidin-3-yl)pyridine 1-oxide]",10 to 100 nM

# From patent publication US11976057B2, “MrgX2 antagonists” (GlaxoSmithKline Intellectual Property Development Limited, priority 2020, dated 2024)
